Source: patent publication US8809280B2, “Therapeutic peptides” (Lytix Biopharma AS, priority 2009, dated 2014)
Converted amounts (≈) assume the structure as drawn. Where two headings read alike, the source gives them in different places. One block for each molecule: values may come before it.

Columns and labels:
Assay type in all cases: cell-based
[1] = system: methicillin resistant Staphylococcus epidermidis (ATCC 27626); test: microbe, parasite or virus in culture
Protocol: (§1) The antimicrobial testing was conducted by TosLab A/S (Tromsø, Norway). Each compound was diluted to 1 mg/ml in water and tested in duplicates at 200, 100, 50, 35, 15, 10, 5, 2.5, 1, 0.5 μg/ml except 4n which was tested at 50, 35, 15, 10, 5, 2.5, 1, 0.5 μg/ml due to solubility problems. All tested compounds were di TFA salts.
(§2) The bacterial strains were grown in 2% Bacto Peptone water until exponential growth was achieved. […] A bacterial concentration of 2×10^6 cfu/ml was used. Both negative control (no peptide) and positive control (Gentamicin) was used for all bacterial strains. Growth or no growth was judged by the turbidity of the wells.
Methicillin resistant Staphylococcus epidermidis (ATCC 27626)
(§3) Antimicrobial assays: 200 μg/ml
(§4) Suitable methodologies are described in Example 1.
(§5) Each compound was tested in duplicates at 200, 100, 50, 35, 15, 10, 5, 2.5, 1, 0.5 μg/ml. All tested compounds were di-trifluoroacetic acid salts.

[2] = system: Escherichia coli (ATTC 25922); test: microbe, parasite or virus in culture
Protocol: as §1, §2
Escherichia coli (ATTC 25922)
as §3, §4, §5

[3] = system: methicillin resistant Staphylococcus aureus (ATCC 33591); test: microbe, parasite or virus in culture
Protocol: as §1, §2
Methicillin resistant Staphylococcus aureus (ATCC 33591)
as §3, §4, §5

[4] = system: Staphylococcus aureus (ATTC 25923); test: microbe, parasite or virus in culture
Protocol: as §1, §2
Staphylococcus aureus (ATTC 25923)
as §3, §4, §5

human red blood cells = test: cells
Protocol: The hemolytic testing against human erythrocytes was conducted by Lytix Biopharma A/S (Tromso, Norway). Each compound was tested from a concentration of 1 mg/ml and lower, except 4k and 4n which was only tested up to 0.5 mg/ml due to solubility problems. 8 mL of blood was collected from adult healthy male donors. The blood was divided equally and distributed in a commercial available EDTA containing test tube (BD vacutainer, 7.2 mg K2 EDTA) and in a 10 mL reaction vial containing 40 μL of a heparin solution (1000 U/mL in 0.9% sodium chloride). After 30 minutes the hematocrit of the EDTA treated blood was determined. The heparinized blood was centrifuged for 10 minutes at 1500 rpm and the supernatant removed. Subsequently the RBCs were washed with prewarmed PBS three times, and diluted to 10% hematocrit. The compounds dissolved in PBS (concentration 1 μg/mL to 1000 µg/mL) and the erythrocytes were incubated under agitation at 37° C. for one hour. A positive control with an end concentration of 0.1% TRITON X-100 (nonionic surfactant) and a negative control containing pure PBS buffer were included. The samples were centrifuged (4000 rpm) for 5 minutes and the absorption of the supernatant was measured at 405 nm. The values given in Table 1A correspond to 50% hemolysis.
The plasma fraction of heparinized human blood was first removed by centrifugation and three additional washing steps with 37° C. pre-warmed phosphate buffered saline (PBS). Subsequently, the human RBC were diluted to 10% hematocrit and the β^2,2-amino acid derivatives were dissolved in PBS providing concentrations ranging from 1-1000 μg/mL. The diluted RBC were added to the compound solutions to a final erythrocyte concentration of 1% v/v. PBS and TRITON X-100 (non-ionic surfactant), in a final concentration of 0.1% v/v, were included as negative and positive control. After 1 hour agitated incubation at 37° C. the samples were centrifuged at 4000 rpm for 5 min. Release of hemoglobin was determined by measuring the absorbance of the supernatant at 405 nm. Hemolytic activity was calculated as the ratio of treated sample with β^2,2-amino acid derivative and tenside treated sample according to the formula: […]

[5] = Staphylococcus epidermidis, ATCC 27626 / MRSE, Example 2, values separated by / are repeat tests, read-out: Antimicrobial potency (MIC) MRSE
[6] = Escherichia coli, Example 2, values separated by / are repeat tests, read-out: Antimicrobial potency (MIC) E. coli
[7] = Staphylococcus aureus, ATCC 33591 / MRSA, Example 2, values separated by / are repeat tests, read-out: Antimicrobial potency (MIC) MRSA
[8] = Staphylococcus aureus, Example 2, values separated by / are repeat tests, read-out: Antimicrobial potency (MIC) S. aureus
[9] = ATTC 25922, read-out: MIC E. coli
[10] = Staphylococcus epidermidis, ATCC 27626 / MRSE, Example 4, ATCC 27626, di-trifluoroacetate salts, highest concentration tested 200 μg/ml, read-out: MIC MRSE
[11] = Escherichia coli, ATCC25922, Example 4, ATCC 25922, di-trifluoroacetate salts, highest concentration tested 200 μg/ml, read-out: MIC E. coli
[12] = Staphylococcus aureus, ATCC33591, Example 4, ATCC 33591, di-trifluoroacetate salts, highest concentration tested 200 μg/ml, read-out: MIC MTRSA
[13] = Staphylococcus aureus, ATCC25923, Example 4, ATCC 25923, di-trifluoroacetate salts, highest concentration tested 200 μg/ml, read-out: MIC S. aureus
[14] = Erythrocyte, Example 4, hemolytic activity, human red blood cells, highest concentration tested 1000 μg/ml, read-out: EC50 RBC
[15] = Homo sapiens, Erythrocyte, Example 2, highest concentration tested 1000 μg/ml, * low solubility in the test media, read-out: Toxicity RBC (EC50)
[16] = ATTC 25923, read-out: MIC S. aureus

MIC [1, 5]: > 200 µg/mL
MIC [2, 6]: > 200 µg/mL
MIC [3, 7]: > 200 µg/mL
MIC [4, 8]: > 200 µg/mL
SMILES: CCCC(CN)(CCC)C(=O)NCCN [Compound 1, N-(2-aminoethyl)-2-(aminomethyl)-2-propyl-pentanamide]

MIC [2, 9]: 129 µM
MIC MRSA ([3]; ATCC 33591): 150 µM (≈ 81.7 µg/mL)
MIC ([3]; ATCC 33591, read-out: MIC MTRSA): 6.5 µM
EC50 (human red blood cells; red cells of human): 1120 µM
SMILES: CN(C)CCN1CCN(C(=O)C(CN)(Cc2ccc(C(F)(F)F)cc2)Cc2ccc(C(F)(F)F)cc2)CC1 [Compound 4b]
MBC MRSE ([1]; ATCC 27626): 75 µM (≈ 40.8 µg/mL)
Therapeutic index MRSE ([1]; ATCC 27626): 17
MBC E. coli ([2]; ATTC 25922): >301 µM
Therapeutic index E. coli ([2]; ATTC 25922): 8.6
MIC E. coli ([2]; Example 1, ATTC 25922, di TFA salts, highest concentration tested 200 μg/ml): — (The notation “—”denotes no detectable activity (MIC or EC50) within the concentration range tested.)
MBC MRSA ([3]; ATCC 33591): 150 µM (≈ 81.7 µg/mL)
Therapeutic index MRSA ([3]; ATCC 33591): 172
MBC S. aureus ([4]; ATTC 25923): 301 µM (≈ 164 µg/mL)
Therapeutic index S. aureus ([4]; ATTC 25923): 25
EC50 RBC (human red blood cells; Example 1, 50% hemolysis of human red blood cells, highest concentration tested 1000 μg/ml): — (The notation “—”denotes no detectable activity (MIC or EC50) within the concentration range tested.)

MIC [1, 10]: 21 µM
MIC [2, 11]: 50 µM
MIC [3, 12]: 7.1 µM
MIC [4, 13]: 14 µM
SMILES: CN(C)CCNC(=O)C(CN)(Cc1ccc(C(F)(F)F)cc1)Cc1ccc(C(F)(F)F)cc1 [Entry 6b]
Therapeutic index MRSE ([1]; EC50 RBC divided by MIC): 22
Therapeutic index E. coli ([2]; EC50 RBC divided by MIC): 9.4
Therapeutic index MRSA ([3]; EC50 RBC divided by MIC): 66
Therapeutic index S. aureus ([4]; EC50 RBC divided by MIC): 33
EC50 (human red blood cells; [14]): 468 µM

MIC [1, 5]: 50 µg/mL
MIC [2, 6]: 50 µg/mL
MIC [3, 7]: 10 µg/mL
MIC [4, 8]: 35 µg/mL
SMILES: CN1CCN(C(=O)C(CN)(Cc2ccc(C(F)(F)F)cc2)Cc2ccc(C(F)(F)F)cc2)CC1 [Compound 33, 3-amino-1-(4-methylpiperazin-1-yl)-2,2-bis(4-(trifluoromethyl)benzyl)propan-1-one]
EC50 (human red blood cells; [15]): 376 µg/mL

MIC [1, 5]: 10 µg/mL
MIC [2, 6]: 15 µg/mL
MIC [3, 7]: 5 µg/mL
MIC [4, 8]: 10 µg/mL
SMILES: CN1CCN(C(=O)C(CN)(Cc2ccc3ccccc3c2)Cc2ccc3ccccc3c2)CC1 [Compound 32, 3-amino-1-(4-methylpiperazin-1-yl)-2,2-bis(naphthalen-2-ylmethyl)propan-1-one]
EC50 (human red blood cells; [15]): 225 µg/mL

MIC ([1]; ATCC 27626, read-out: MIC MRSE): 6.8 µM
MIC [2, 9]: 136 µM
MIC MRSA ([3]; ATCC 33591): 6.8 µM (≈ 3.46 µg/mL)
MIC [4, 16]: 10.2 µM
EC50 (human red blood cells; red cells of human): 386 µM
SMILES: CC(C)c1ccc(CC(CN)(Cc2ccc(C(C)C)cc2)C(=O)N[C@@H](CCCNC(=N)N)C(N)=O)cc1 [Compound 4j]
MBC MRSE ([1]; ATCC 27626): 6.8 µM (≈ 3.46 µg/mL)
MBC E. coli ([2]; ATTC 25922): 136 µM (≈ 69.2 µg/mL)
MBC MRSA ([3]; ATCC 33591): 6.8 µM (≈ 3.46 µg/mL)
MBC S. aureus ([4]; ATTC 25923): 6.8 µM (≈ 3.46 µg/mL)

MIC [1, 10]: 56 µM
MIC [2, 11]: 160 µM
MIC [3, 12]: 56 µM
MIC [4, 13]: 56 µM
SMILES: CN(C)CCNC(=O)C(CN)(CCCc1ccccc1)CCCc1ccccc1 [Entry 6a]
Therapeutic index MRSE ([1]; EC50 RBC divided by MIC): 9.1
Therapeutic index E. coli ([2]; EC50 RBC divided by MIC): 3.2
Therapeutic index MRSA ([3]; EC50 RBC divided by MIC): 9.1
Therapeutic index S. aureus ([4]; EC50 RBC divided by MIC): 9.1
EC50 (human red blood cells; [14]): 507 µM

MIC [1, 5]: 35 µg/mL
MIC [2, 6]: 100 µg/mL
MIC [3, 7]: 35 µg/mL
MIC [4, 8]: 35 µg/mL
SMILES: CN(C)CCNC(=O)C(CN)(CCCc1ccccc1)CCCc1ccccc1 [Compound 26, 2-(aminomethyl)-N-(2-(dimethyl-amino)ethyl)-5-phenyl-2-(3-phenyl-propyl)-pentanamide]
EC50 (human red blood cells; [15]): 316 µg/mL

MIC ([1]; ATCC 27626, read-out: MIC MRSE): 10.1 µM
MIC [2, 9]: 5.7 µM
MIC MRSA ([3]; ATCC 33591): 2.1 µM (≈ 1.36 µg/mL)
MIC [4, 16]: 2.9 µM
EC50 (human red blood cells; red cells of human): 99 µM
SMILES: CC(C)(C)c1cc(CC(CN)(Cc2cc(C(C)(C)C)cc(C(C)(C)C)c2)C(=O)N[C@@H](CCCNC(=N)N)C(N)=O)cc(C(C)(C)C)c1 [Compound 4n]
MBC MRSE ([1]; ATCC 27626): 3.4 µM (≈ 2.21 µg/mL)
MBC E. coli ([2]; ATTC 25922): 5.7 µM (≈ 3.7 µg/mL)
MBC MRSA ([3]; ATCC 33591): 4.6 µM (≈ 2.99 µg/mL)
MBC S. aureus ([4]; ATTC 25923): 4.6 µM (≈ 2.99 µg/mL)

MIC [1, 5]: 200 µg/mL
MIC [2, 6]: 200 µg/mL
MIC [3, 7]: 200 µg/mL
MIC [4, 8]: 200 µg/mL
SMILES: CN1CCN(C(=O)C(CN)(CCCc2ccccc2)CCCc2ccccc2)CC1 [Compound 31, 2-(aminomethyl)-1-(4-methyl-piperazin-1-yl)-5-phenyl-2-(3-phenylpropyl)pentan-1-one]
EC50 (human red blood cells; [15]): > 1000 µg/mL

MIC [1, 5]: 35 µg/mL
MIC [2, 6]: 200 µg/mL
MIC [3, 7]: 200 µg/mL
MIC [4, 8]: > 200 µg/mL
SMILES: Cc1cc(C)cc(CC(CN)(Cc2cc(C)cc(C)c2)C(=O)N2CCN(C)CC2)c1 [Compound 30, 3-amino-2,2-bis(3,5-dimethyl-benzyl)-1-(4-methylpiperazin-1-yl)propan-1-one]
EC50 (human red blood cells; [15]): > 1000 µg/mL

MIC [1, 10]: 25 µM
MIC [2, 11]: 336 µM
MIC [3, 12]: 59 µM
MIC [4, 13]: 71 µM
SMILES: NCCNC(=O)C(CN)(CCCc1ccccc1)CCCc1ccccc1 [Entry 7a]
Therapeutic index MRSE ([1]; EC50 RBC divided by MIC): 55
Therapeutic index E. coli ([2]; EC50 RBC divided by MIC): 4.1
Therapeutic index MRSA ([3]; EC50 RBC divided by MIC): 23
Therapeutic index S. aureus ([4]; EC50 RBC divided by MIC): 19
EC50 (human red blood cells; [14]): 1380 µM

MIC [1, 5]: 10 µg/mL
MIC [2, 6]: 50 µg/mL
MIC [3, 7]: 50 µg/mL
MIC [4, 8]: 100 µg/mL
SMILES: Cc1cc(C)cc(CC(CN)(Cc2cc(C)cc(C)c2)C(=O)NCCN(C)C)c1 [Compound 25, 3-amino-N-(2-(dimethylamino)-ethyl)-2,2-bis(3,5-dimethylbenzyl)-propanamide]
EC50 (human red blood cells; [15]): 820 µg/mL

MIC [1, 5]: 50 µg/mL
MIC [2, 6]: 200 µg/mL
MIC [3, 7]: 50 µg/mL
MIC [4, 8]: 200 µg/mL
SMILES: CN(C)CCN1CCN(C(=O)C(CN)(CCCc2ccccc2)CCCc2ccccc2)CC1 [Compound 36, 2-(aminomethyl)-1-(4-(2-(dimethyl-amino)ethyl)piperazin-1-yl)-5-phenyl-2-(3-phenylpropyl)pentan-1-one]
EC50 (human red blood cells; [15]): > 1000 µg/mL

MIC [1, 5]: 35 µg/mL
MIC [2, 6]: 100 µg/mL
MIC [3, 7]: 50 µg/mL
MIC [4, 8]: 50 µg/mL
SMILES: Cc1cc(C)cc(CC(CN)(Cc2cc(C)cc(C)c2)C(=O)N2CCN(CCN(C)C)CC2)c1 [Compound 35, 3-amino-1-(4-(2-(dimethylamino)ethyl)piperazin-1-yl)-2,2-bis(3,5-dimethylbenzyl)propan-1-one]
